Each structure is given as a SMILES string.

The nature of this test: Amount of lipid peroxide in salad oil heated at 180° C. with oxygen bubbling (Test Example 1, Table 1). Particulars: 0.2 mg/ml in salad oil, oxygen 2 ml/sec, 40 minutes; for Amount of lipid peroxide: no additive 65.2, non-treated 10.1. Also on record: Amount of lipid peroxide: unit not given here. How it is done: A commercially sold salad oil (a product by Showa Sangyo Co., Ltd.) was pipetted 5 ml each into test tubes. Then various kinds of proanthocyanidins shown in Table 1 below were added thereto a concentration of 0.2 mg/ml and dissolved by stirring. The test tubes were kept in an 180° C. thermostatic oil bath and oxygen gas was bubbled into them at a rate of 2 ml/sec. 40 mintues thereafter, the amount of lipid peroxide in the salad oil was measured by the method shown in Yagi's Vitamins, Vol. 49, pp. 403-405. Used as controls were said salad oil added with no proanthocyanidin (control I) and those added with a commercial catechin, a gallocatechin obtained as a by-product in Preparation Example 5 and an epigallocatechin gallate, which are the monomers forming a structural unit of proanthocyanidins (control II). These control salad oil samples were similarly treated and the amount of lipid peroxide was similarly measured, the results being shown in Table 1.

Turning to `Oc1cc(O)c2c(c1)O[C@H](c1ccc(O)c(O)c1)[C@@H](O)C2` [Commercial d-catechin, d-catechin, reference compound], the “Amount of lipid peroxide” value is reported as 54.7.
With `Oc1cc(O)c2c(c1)OC1(c3ccc(O)c(O)c3)Oc3cc(O)c4c(c3C2C1O)OC(c1ccc(O)c(O)c1)C(O)C4` (centres unmarked) [Dimeric procyanidin A-2, procyanidin A-2], the “Amount of lipid peroxide” value is on record as 25.0.
On to `Oc1cc(O)c2c(c1)OC(c1ccc(O)c(O)c1)C(O)C2c1c(O)cc(O)c2c1OC(c1ccc(O)c(O)c1)C(O)C2` (centres unmarked) [Dimeric procyanidin B-2, procyanidin B-2], for which the “Amount of lipid peroxide” value amounted to 22.4.
Regarding `Oc1cc(O)c2c(c1)O[C@H](c1cc(O)c(O)c(O)c1)[C@@H](O)[C@@H]2c1c(O)cc(O)c2c1O[C@H](c1cc(O)c(O)c(O)c1)[C@@H](O)C2` [Dimeric prodelphinidin B-3, prodelphinidin B-3], the “Lipid peroxide rise inhibition rate” value is on record as 85% and the “Amount of lipid peroxide” value is reported as 17.2.
On the same counts, the results for `O=C(O[C@@H]1Cc2c(O)cc(O)cc2O[C@@H]1c1cc(O)c(O)c(O)c1)c1cc(O)c(O)c(O)c1` [Epigallocatechin gallate, reference compound] are 35% and 45.0.
Consider `Oc1cc(O)c2c(c1)O[C@H](c1cc(O)c(O)c(O)c1)[C@@H](O)C2` [Gallocatechin, gallocatechin, reference compound], for which the “Lipid peroxide rise inhibition rate” value was 32% and the “Amount of lipid peroxide” value worked out at 44.7.
`Oc1cc(O)c2c(c1)OC(c1ccc(O)c(O)c1)C(O)C2c1c(O)cc(O)c2c1OC(c1ccc(O)c(O)c1)C(O)C2c1c(O)cc(O)c2c1OC(c1ccc(O)c(O)c1)C(O)C2c1c(O)cc(O)c2c1OC(c1ccc(O)c(O)c1)C(O)C2` (centres unmarked) [Tetrameric procyanidin]: the “Lipid peroxide rise inhibition rate” value is 62% and the “Amount of lipid peroxide” value came out at 29.1.
For the molecule `Oc1cc(O)c2c(c1)OC(c1cc(O)c(O)c(O)c1)C(O)C2c1c(O)cc(O)c2c1OC(c1cc(O)c(O)c(O)c1)C(O)C2c1c(O)cc(O)c2c1OC(c1ccc(O)c(O)c1)C(O)C2` (centres unmarked) [Trimeric prodelphinidin], the “Lipid peroxide rise inhibition rate” value turned out to be 74% and the “Amount of lipid peroxide” value is recorded as 22.9.
As for `O=C(OC1Cc2c(O)cc(O)c(C3c4c(O)cc(O)cc4OC(c4ccc(O)c(O)c4)C3OC(=O)c3cc(O)c(O)c(O)c3)c2OC1c1ccc(O)c(O)c1)c1cc(O)c(O)c(O)c1` (centres unmarked) [procyanidin B-2 gallic acid diester], the “Lipid peroxide rise inhibition rate” value worked out at 98% and the “Amount of lipid peroxide” value amounted to 10.5.
Take `O=C(OC1Cc2c(O)cc(O)c(C3c4c(O)cc(O)cc4OC(c4cc(O)c(O)c(O)c4)C3OC(=O)c3cc(O)c(O)c(O)c3)c2OC1c1cc(O)c(O)c(O)c1)c1cc(O)c(O)c(O)c1` (centres unmarked) [prodelphinidin B-2 gallic acid diester]: the “Lipid peroxide rise inhibition rate” value was 100% and the “Amount of lipid peroxide” value came to 10.1.

(Values after patent US4797421A, “Antioxidant comprising proanthocyanidin as principal component” (Kikkoman Corporation, priority 1987, dated 1989).)
